# Key:
# Assay type in all cases: cell-based
# [1] = target: T1, CDK1 protein (Homo sapiens, UniProt P06493); assay: CDK1 protein degradation in OVCAR3 cells (Western blot); conditions: 24 h; for DC50: read-out: DC50 CDK1 (half-maximum degradation concentration); for percent CDK1 protein degradation at 0.05 µM: OVCAR-3, 50 nM test compound, read-out: level of CDK1 protein degradation
# T1 construct: host or cells: OVCAR3
# Procedure: (§1) OVCAR3 (Cobioer, CBP60294) cell line of exponential growth phase was inoculated on a 6-well cell culture plate (Corning, 3516) according to 3E5/well scheme; and the plate was incubated overnight in a 5%-carbon dioxide incubator at 37° C. The next day, the test compound was dissolved in DMSO (Sigma, RNBF5902) to prepare a 10-mM concentration stock solution. The stock solution was diluted with complete medium, giving working solutions of different concentrations. Working solution was added into the corresponding wells of the orifice plate. The plate was placed in a 5% carbon dioxide incubator, set at 37° C., and incubated for 24 h. The plate was removed from the incubator, and the cells were washed twice with precooled PBS (Gibco, 14190250), followed by addition of 40 μL RIPA lysis buffer (containing protease inhibitor (Invitrogen™, AM2696)) to each well. Adherent cells were scraped off with a cell scraper, and the cell lysate was transferred to a 1.5 mL centrifuge tube, and the tube was placed on ice for 30 minutes. After completion of cell lysis, the tube was centrifugated for 10 min at 4° C., 14000 rpm. The supernatant was transferred into a new 1.5-mL centrifuge tube, and the new tube was placed on ice, followed by measurement of the protein concentration with BCA protein detection kit (Thermo Fisher, 23225). A mixture of cell lysate (40 μL) and loading buffer (10 μL, 5×SDS (Beyotime, P0015L)) was placed into a water bath at 95° C. for 10 min to denature the protein. The denatured protein sample, 30 μL/well, was added into a corresponding well of 4-20% Bis-Tris gel (Kingsley, M00657). The initial voltage was adjusted to 80-V and run for 30 min, followed by voltage increased to 120 V, and run for another 40 min, until the strip had run to the appropriate position. After electrophoresis, iBlot2 (Life Technologies, IB21001) was used to transfer the film under the condition of 20 V and 7 min. At the end of film transfer, 5% skimmed milk powder was sealed at room temperature for 2 h, and then TBST (Thermo Scientific, 28360) buffer solution was used to rinse for three times, 10 minutes each time. Skimmed milk powder (5%) was diluted with the first antibody in the appropriate proportion, and the working solution of the first antibody was prepared and incubated overnight at 4° C. After the incubation of the first antibody, the membrane was washed three times at room temperature with TBST buffer solution, 10 minutes each time; and the second antibody was incubated with 5% skimmed milk powder at room temperature for 1 h. After washing the film for three times with TBST, ECL color developing solution (Thermofisher 34095) was added, and an image was taken on a Biorad Chemi Doc gel imager. The band gray value was analyzed (Image Lab).
# (§2) Symbols of “−”, “+”, “++”, and “+++” indicate that the degradation level of CDK protein induced by test compound was 10% or less, 11 to 30%, 31 to 60%, and greater than 60%, respectively.
# (§3) Half-maximum degradation concentrations (DC50s) of test compounds were calculated using GraphPad Prism and their values are shown in Table 4. Symbols of “++++”, “+++”, “++”, “+” and “−” represent DC50s equal or less than 10 nM, 11-50 nM, 51-100 nM, 101-200 nM, and >200 nM, respectively.
# [2] = target: T2, CDK2 protein (Homo sapiens, UniProt P24941); assay: CDK2 protein degradation in OVCAR3 cells (Western blot); conditions: 24 h; for level of CDK2 protein degradation: 50 nM test compound; for DC50: read-out: DC50 CDK2 (half-maximum degradation concentration)
# T2 construct: host or cells: OVCAR3
# Procedure: as §1, §2, §3
# [3] = target: T3, CDK4 protein (Homo sapiens, UniProt P11802); assay: CDK4 protein degradation in OVCAR3 cells (Western blot); conditions: 24 h; for DC50: read-out: DC50 CDK4 (half-maximum degradation concentration); for percent CDK4 protein degradation at 0.05 µM: OVCAR-3, 50 nM test compound, read-out: level of CDK4 protein degradation
# T3 construct: host or cells: OVCAR3
# Procedure: as §1, §2, §3
# [4] = target: T4, CDK6 protein (Homo sapiens, UniProt Q00534); assay: CDK6 protein degradation in OVCAR3 cells (Western blot); conditions: 24 h; for DC50: read-out: DC50 CDK6 (half-maximum degradation concentration); for percent CDK6 protein degradation at 0.05 µM: OVCAR-3, 50 nM test compound, read-out: level of CDK6 protein degradation
# T4 construct: host or cells: OVCAR3
# Procedure: as §1, §2, §3
# [5] = tested on: OVCAR3 cells; assay: Cell proliferation study (Cell Titer Glo, 72 h); conditions: Homo sapiens, OVCAR-3, luminescence, read-out: IC50, inhibitory effect on cellular proliferation
# Procedure: OVCAR3 (Cobioer, CBP60294) cell line in logarithmic growth phase was used for these experiments. The cell density was adjusted to 1.1×10^4/mL and the cells were inoculated into a 96-well cell culture plate (Corning, 3599), 95 μL per well (the number of cells per well was 1×10^3). The culture plate was placed in an incubator, with 5% carbon dioxide, at 37° C. and incubated overnight. On the next day, a 10 mM stock solution of test compound was prepared in DMSO (Sigma, RNBF5902). After gradient dilution, a series of working solutions with different concentrations of test compound was prepared using complete medium. Working solution was added into the corresponding wells of the orifice plate, and the plate was placed in a 5% carbon dioxide incubator and cultivated at 37° C. for 72 h, and then removed from the incubator. To each well was added 50 μL Cell Tier Glo (Promega, G7573), and the plate was incubated at room temperature for 10 min, followed by luminescence detection with an enzyme marker. The inhibition curve was obtained with GraphPad 7.0 software using four-parameter equation.
# T1 sequence (P06493 whole entry): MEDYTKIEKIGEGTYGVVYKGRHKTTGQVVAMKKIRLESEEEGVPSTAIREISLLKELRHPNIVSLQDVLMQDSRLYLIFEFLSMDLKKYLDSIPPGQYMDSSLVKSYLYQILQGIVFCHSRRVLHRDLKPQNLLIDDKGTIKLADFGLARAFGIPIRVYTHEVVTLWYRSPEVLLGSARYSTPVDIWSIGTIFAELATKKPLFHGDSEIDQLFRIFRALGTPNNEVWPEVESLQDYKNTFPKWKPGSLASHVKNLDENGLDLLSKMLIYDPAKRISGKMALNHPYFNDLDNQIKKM
# T3 sequence (P11802 whole entry): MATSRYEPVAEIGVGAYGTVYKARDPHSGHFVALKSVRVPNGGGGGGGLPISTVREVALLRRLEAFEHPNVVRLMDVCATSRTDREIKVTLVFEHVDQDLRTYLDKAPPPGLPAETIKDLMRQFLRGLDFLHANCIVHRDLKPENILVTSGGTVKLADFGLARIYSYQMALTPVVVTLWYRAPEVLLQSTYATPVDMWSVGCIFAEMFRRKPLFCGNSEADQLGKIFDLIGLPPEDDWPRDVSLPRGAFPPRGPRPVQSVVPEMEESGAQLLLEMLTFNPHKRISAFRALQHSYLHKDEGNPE
# T4 sequence (Q00534 whole entry): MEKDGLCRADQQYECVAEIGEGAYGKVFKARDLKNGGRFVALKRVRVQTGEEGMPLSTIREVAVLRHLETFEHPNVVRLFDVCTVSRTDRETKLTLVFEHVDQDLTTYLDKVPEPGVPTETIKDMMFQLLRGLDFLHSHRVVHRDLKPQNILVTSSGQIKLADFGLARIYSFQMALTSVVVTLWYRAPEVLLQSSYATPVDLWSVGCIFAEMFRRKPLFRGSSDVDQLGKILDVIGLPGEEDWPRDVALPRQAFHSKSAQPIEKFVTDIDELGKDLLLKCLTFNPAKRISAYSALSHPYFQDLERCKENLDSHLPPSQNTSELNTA
Compound,DC50 [1],percent CDK1 protein degradation at 0.05 µM [1],level of CDK2 protein degradation [2],DC50 [2],DC50 [3],percent CDK4 protein degradation at 0.05 µM [3],DC50 [4],percent CDK6 protein degradation at 0.05 µM [4],IC50 [5]
C[C@@]1(O)CCC[C@H]1n1c(=O)c(C(F)F)cc2cnc(NC3CCN(S(=O)(=O)C4CCN(CC5CCN(C6CN(c7cc8c(cc7F)C(=O)N(C7CCC(=O)NC7=O)C8=O)C6)CC5)CC4)CC3)nc21 (stereo partly shown) [Compound 37],< 10 nM,> 60%,+++ (greater than 60%),< 10 nM,> 200 nM,≤ 10%,> 200 nM,> 60%,< 100 nM
Cc1nc2c(F)cc(-c3nc(Nc4ccc(S(=O)(=O)C5CCN(C6CCN(C7CN(c8cc9c(cc8F)C(=O)N(C8CCC(=O)NC8=O)C9=O)C7)CC6)CC5)cc4)ncc3F)cc2n1C(C)C (stereo not shown) [Compound 64],> 200 nM,> 60%,+++ (greater than 60%),> 200 nM,> 200 nM,≤ 10%,> 200 nM,> 60%,< 100 nM
Cc1nc2c(F)cc(-c3nc(NC4CCN(S(=O)(=O)C5CCN(C6CN(C7CCN(c8cc9c(cc8F)C(=O)N(C8CCC(=O)NC8=O)C9=O)CC7)C6)CC5)CC4)ncc3F)cc2n1C(C)C (stereo not shown) [Compound 79],< 10 nM,> 60%,+++ (greater than 60%),< 10 nM,> 200 nM,≤ 10%,< 10 nM,> 60%,< 100 nM
Cc1nc2c(F)cc(-c3nc(NC4CCN(S(=O)(=O)C5CCN(CC6CCN(C7CN(c8cc9c(cc8F)C(=O)N(C8CCC(=O)NC8=O)C9=O)C7)CC6)CC5)CC4)ncc3F)cc2n1C(C)C (stereo not shown) [Compound 80],> 200 nM,≤ 10%,++ (31 to 60%),> 200 nM,> 200 nM,≤ 10%,< 10 nM,> 60%,< 100 nM
Cc1nc2c(F)cc(-c3nc(NC4CCN(S(=O)(=O)C5CCN(C6CCN(C7CN(c8cc9c(cc8F)C(=O)N(C8CCC(=O)NC8=O)C9=O)C7)CC6)CC5)CC4)ncc3F)cc2n1C(C)C (stereo not shown) [Compound 83],101 to 200 nM,31 to 60%,++ (31 to 60%),101 to 200 nM,> 200 nM,≤ 10%,101 to 200 nM,> 60%,< 100 nM
Cc1nc2c(F)cc(-c3nc(NC4CCN(S(=O)(=O)C5CCN(CC6CC7(C6)CN(c6cc8c(cc6F)C(=O)N(C6CCC(=O)NC6=O)C8=O)C7)CC5)CC4)ncc3F)cc2n1C(C)C (stereo not shown) [Compound 88],11 to 50 nM,31 to 60%,+++ (greater than 60%),101 to 200 nM,> 200 nM,≤ 10%,> 200 nM,> 60%,< 100 nM
C[C@@]1(O)CCC[C@H]1n1c(=O)ccc2cnc(NC3CCN(S(=O)(=O)C4CCN(C5CC6(CCN(c7cc8c(cc7F)C(=O)N(C7CCC(=O)NC7=O)C8=O)CC6)C5)CC4)CC3)nc21 (stereo partly shown) [Compound 94],< 10 nM,> 60%,+++ (greater than 60%),< 10 nM,> 200 nM,11 to 30%,> 200 nM,> 60%,1000 to 5000 nM
C[C@@]1(O)CCC[C@H]1n1c(=O)ccc2cnc(NC3CCN(S(=O)(=O)C4CCN(CC5CCN(C6CN(c7cc8c(cc7F)C(=O)N(C7CCC(=O)NC7=O)C8=O)C6)CC5)CC4)CC3)nc21 (stereo partly shown) [Compound 95],11 to 50 nM,> 60%,++ (31 to 60%),51 to 100 nM,> 200 nM,31 to 60%,< 10 nM,> 60%,101 to 1000 nM
Cc1nc2c(F)cc(-c3nc(NC4CCN(S(=O)(=O)C5CN(CC6CN(c7cc8c(cc7F)C(=O)N(C7CCC(=O)NC7=O)C8=O)C6)C5)CC4)ncc3F)cc2n1C(C)C (stereo not shown) [Compound 109],,,,,,,,,1000 to 5000 nM
Cc1nc2c(F)cc(-c3nc(Nc4ccc(S(=O)(=O)C5CCN(CC6CCN(c7cc8c(cc7F)C(=O)N(C7CCC(=O)NC7=O)C8=O)CC6)CC5)cc4)ncc3F)cc2n1C(C)C (stereo not shown) [Compound 110],,,,,,,,,101 to 1000 nM
Cc1nc2c(F)cc(-c3nc(N[C@@H]4CCN(S(=O)(=O)C5CCN(CC6CCN(c7cc8c(cc7F)C(=O)N(C7CCC(=O)NC7=O)C8=O)CC6)CC5)C[C@H]4O)ncc3F)cc2n1C(C)C (stereo partly shown) [Compound 111],,,,,,,,,< 100 nM
Cc1nc2c(F)cc(-c3nc(N[C@@H]4CCN(S(=O)(=O)C5CCN(CC6CCN(c7cc8c(cc7F)C(=O)N(C7CCC(=O)NC7=O)C8=O)CC6)CC5)C[C@H]4O)ncc3Cl)cc2n1C(C)C (stereo partly shown) [Compound 112],,,,,,,,,101 to 1000 nM
